Assay results from PMC11487561 (ACS Chemical Neuroscience, 2024).

Assays:
[1] = test system: Transporter, GABA; test: Lead Profiling Screen – Eurofins Panlabs; assay type: binding, rat
[2] = target: Glucocorticoid (Homo sapiens, UniProt P04150); test: Lead Profiling Screen – Eurofins Panlabs; assay type: binding; conditions: read-out: % inh at 10 μM
[3] = target: T1, Adenosine A3 (Homo sapiens, UniProt P0DMS8); test: Lead Profiling Screen – Eurofins Panlabs; assay type: binding; conditions: read-out: % inh at 10 μM
T1 construct: Eurofins Panlabs

[4] = target: human M1 (Homo sapiens, UniProt P11229); test: Calcium mobilization assay, muscarinic selectivity; assay type: cell-based
[5] = test system: Purinergic P2X; test: Lead Profiling Screen – Eurofins Panlabs; assay type: binding, rabbit
[6] = target: T2, Adrenergic α1B (Rattus norvegicus, UniProt P15823); test: Lead Profiling Screen – Eurofins Panlabs; assay type: binding; conditions: read-out: % inh at 10 μM
T2 construct: Eurofins Panlabs (contract screen)

[7] = test system: Rolipram; test: Lead Profiling Screen – Eurofins Panlabs; assay type: binding, rat
[8] = target: T3, hKvLQT1/minK (Homo sapiens, UniProt P51787); test: Cardiac Ion Channel Panel – Charles River (QPatch HT patch clamp); assay type: cell-based
T3 construct: Charles River Laboratories
Protocol: (§1) page 17: Table S3. Cardiac Ion Channel Panel - Charles River Laboratories for VU6016235 Ion Channel Concentration Mean % Standard Standard n (μM) Inhibition Deviation Error hCav1.2 10 13.9 8.9 5.1 3 hCav3.2 10 6.7 2.7 1.4 4 hHCN2 10 2.6 1.9 1.1 3 hERG 10 10.9 0.9 0.4 4 hKv1.5 10 1.3 1.8 0.9 4 […] 10 4.1 5.6 2.8 4 hKv1.3 10 9 2.9 1.7 3 hNav1.5 (Tonic) 10 5.8 0.6 0.4 3 […] (Phasic) The in vitro effects of VU6016235 were evaluated at room temperature using the QPatch HT® (Sophion Bioscience A/S, Denmark), an automatic parallel patch clamp system. VU6016235 was evaluated at a concentration of 10 μM and tested in at least 3 cells (n ≥ 3). The duration of exposure to each test article concentration was at least 5 minutes. Rat Amphetamine-Induced Hyperlocomotion (AHL) Protocol Male Harlan Sprague Dawley rats with a mean body weight of 240 g (range 221-264 g) were tested in SmartFrame Open Field locomotor activity test chambers to automatically record locomotor activity. All […] for an additional 30 min with either vehicle or a dose of VU6016235 or the comparator M 4 PAM […] Next, rats were injected subcutaneously with vehicle or a dose of 0.75 mg/kg amphetamine and then monitored for an additional 60 min. Changes in locomotor activity were recorded for a total of 120 min. Locomotor data were expressed as the number of photobeam breaks/5 min intervals across the 120-min test session or as the total ambulation, calculated as sum of photobeam beam breaks from the time of amphetamine administration (60 min) until the end of the study (120 min). Time course data were analyzed by two-way ANOVA with main effects of treatment and time; changes in total ambulation were analyzed by one-way ANOVA followed by Dunnett's post hoc test (GraphPad Prism 7 [GraphPad Software, San Diego, CA]). For all tests, α ≤ 0.05 was considered to represent statistical significance. Finally, percent reversal data were calculated in Microsoft Excel using the following formula: Percent Reversal = 100 - {[(total ambulation in individual animal from t = 60 to t = 120) / (mean total ambulation S17

[9] = target: T4, hCav1.2 (Homo sapiens, UniProt Q13936); test: as above; assay type: cell-based
T4 construct: Charles River Laboratories
Protocol: as §1

[10] = target: T5, hKv1.3 (Homo sapiens, UniProt P22001); test: as above; assay type: cell-based
T5 construct: Charles River Laboratories
Protocol: as §1

[11] = target: T6, hNav1.5 (Phasic) (Homo sapiens, UniProt Q14524); test: as above; assay type: cell-based
T6 construct: Charles River Laboratories
Protocol: as §1

[12] = target: T7, hCav3.2 (Homo sapiens, UniProt O95180); test: as above; assay type: cell-based
T7 construct: Charles River Laboratories
Protocol: as §1

[13] = target: T8, hNav1.5 (Tonic) (Homo sapiens, UniProt Q14524); test: as above; assay type: cell-based
T8 construct: Charles River Laboratories
Protocol: as §1

[14] = target: T9, hERG (Homo sapiens, UniProt Q12809); test: as above; assay type: cell-based
T9 construct: Charles River Laboratories
Protocol: as §1

[15] = target: T10, hKv1.5 (Homo sapiens, UniProt P22460); test: as above; assay type: cell-based
T10 construct: Charles River Laboratories
Protocol: as §1

[16] = target: T11, hHCN2 (Homo sapiens, UniProt Q9UL51); test: as above; assay type: cell-based
T11 construct: Charles River Laboratories
Protocol: as §1

[17] = test system: Phorbol Ester; test: Lead Profiling Screen – Eurofins Panlabs; assay type: binding, mouse
[18] = target: human M5 (Homo sapiens, UniProt P08912); test: Calcium mobilization assay, muscarinic selectivity; assay type: cell-based
[19] = target: Serotonin (5-Hydroxytryptamine) 5-HT1A (Homo sapiens, UniProt P08908); test: Lead Profiling Screen – Eurofins Panlabs; assay type: binding; conditions: read-out: % inh at 10 μM
[20] = target: Muscarinic M2 (Homo sapiens, UniProt P08172); test: Lead Profiling Screen – Eurofins Panlabs; assay type: binding; conditions: read-out: % inh at 10 μM
[21] = target: Neuropeptide Y Y1 (Homo sapiens, UniProt P25929); test: Lead Profiling Screen – Eurofins Panlabs; assay type: binding; conditions: read-out: % inh at 10 μM
[22] = target: Transporter, Norepinephrine (NET) (Homo sapiens, UniProt P23975); test: Lead Profiling Screen – Eurofins Panlabs; assay type: binding; conditions: read-out: % inh at 10 μM
[23] = target: T12, Adrenergic α1D (Homo sapiens, UniProt P25100); test: Lead Profiling Screen – Eurofins Panlabs; assay type: binding; conditions: read-out: % inh at 10 μM
T12 construct: Eurofins Panlabs (contract screen)

[24] = target: Melatonin MT1 (Homo sapiens, UniProt P48039); test: Lead Profiling Screen – Eurofins Panlabs; assay type: binding; conditions: read-out: % inh at 10 μM
[25] = target: T13, Dopamine D3 (Homo sapiens, UniProt P35462); test: Lead Profiling Screen – Eurofins Panlabs; assay type: binding; conditions: read-out: % inh at 10 μM
T13 construct: Eurofins Panlabs (contract screen)

Sequence of human M5 (P08912 whole entry): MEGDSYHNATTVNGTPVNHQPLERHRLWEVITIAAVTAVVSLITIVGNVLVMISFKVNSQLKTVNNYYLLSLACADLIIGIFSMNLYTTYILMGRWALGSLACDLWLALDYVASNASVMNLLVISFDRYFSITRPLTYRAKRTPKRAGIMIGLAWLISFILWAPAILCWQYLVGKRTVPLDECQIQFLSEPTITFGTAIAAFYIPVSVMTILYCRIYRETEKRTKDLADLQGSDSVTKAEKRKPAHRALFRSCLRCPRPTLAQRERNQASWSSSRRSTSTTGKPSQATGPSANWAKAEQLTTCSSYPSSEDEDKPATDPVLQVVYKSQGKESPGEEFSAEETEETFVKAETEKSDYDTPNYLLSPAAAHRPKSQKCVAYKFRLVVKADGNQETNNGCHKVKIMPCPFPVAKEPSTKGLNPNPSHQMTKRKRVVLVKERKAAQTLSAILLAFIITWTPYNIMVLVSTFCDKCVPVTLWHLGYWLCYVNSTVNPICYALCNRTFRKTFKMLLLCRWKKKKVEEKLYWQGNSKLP
Sequence of human M1 (P11229 whole entry): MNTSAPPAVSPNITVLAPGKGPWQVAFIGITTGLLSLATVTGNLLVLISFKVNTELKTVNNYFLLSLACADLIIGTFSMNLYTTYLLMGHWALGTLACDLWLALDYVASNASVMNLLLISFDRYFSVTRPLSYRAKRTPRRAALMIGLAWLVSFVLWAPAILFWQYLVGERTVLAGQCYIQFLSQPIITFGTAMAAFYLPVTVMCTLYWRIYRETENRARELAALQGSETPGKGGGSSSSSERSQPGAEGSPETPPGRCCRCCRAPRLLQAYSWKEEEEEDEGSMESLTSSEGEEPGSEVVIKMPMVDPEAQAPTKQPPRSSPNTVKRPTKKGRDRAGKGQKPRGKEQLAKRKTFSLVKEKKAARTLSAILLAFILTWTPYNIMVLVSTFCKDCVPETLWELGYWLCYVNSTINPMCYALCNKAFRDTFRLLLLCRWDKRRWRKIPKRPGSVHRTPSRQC
T1 sequence (P0DMS8 whole entry): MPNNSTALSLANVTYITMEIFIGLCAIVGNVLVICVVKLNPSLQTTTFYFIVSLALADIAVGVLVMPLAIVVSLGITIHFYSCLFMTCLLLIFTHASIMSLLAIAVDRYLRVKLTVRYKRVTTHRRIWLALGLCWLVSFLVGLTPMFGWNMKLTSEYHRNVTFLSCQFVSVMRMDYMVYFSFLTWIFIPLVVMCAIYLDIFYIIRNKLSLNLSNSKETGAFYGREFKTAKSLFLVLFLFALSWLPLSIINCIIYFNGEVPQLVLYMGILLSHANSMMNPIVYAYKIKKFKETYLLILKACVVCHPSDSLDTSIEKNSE
Sequence of Transporter, Norepinephrine (NET) (P23975 whole entry): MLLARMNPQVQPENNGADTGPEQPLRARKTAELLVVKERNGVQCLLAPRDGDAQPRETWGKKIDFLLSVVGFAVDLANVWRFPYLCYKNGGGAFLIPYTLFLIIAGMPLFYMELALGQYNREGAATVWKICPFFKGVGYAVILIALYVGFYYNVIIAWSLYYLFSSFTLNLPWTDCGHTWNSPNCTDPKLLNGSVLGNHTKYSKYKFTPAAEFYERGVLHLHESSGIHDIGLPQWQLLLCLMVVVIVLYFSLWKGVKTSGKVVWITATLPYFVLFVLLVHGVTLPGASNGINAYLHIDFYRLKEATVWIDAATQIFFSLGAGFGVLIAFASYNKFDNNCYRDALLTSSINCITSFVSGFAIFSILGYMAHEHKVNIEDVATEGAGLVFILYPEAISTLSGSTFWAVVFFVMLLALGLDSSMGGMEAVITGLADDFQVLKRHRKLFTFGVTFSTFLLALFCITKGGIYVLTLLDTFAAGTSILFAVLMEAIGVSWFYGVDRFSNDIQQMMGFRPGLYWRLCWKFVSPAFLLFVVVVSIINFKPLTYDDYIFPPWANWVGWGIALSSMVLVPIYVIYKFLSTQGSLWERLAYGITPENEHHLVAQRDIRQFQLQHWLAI
T2 sequence (P15823 whole entry): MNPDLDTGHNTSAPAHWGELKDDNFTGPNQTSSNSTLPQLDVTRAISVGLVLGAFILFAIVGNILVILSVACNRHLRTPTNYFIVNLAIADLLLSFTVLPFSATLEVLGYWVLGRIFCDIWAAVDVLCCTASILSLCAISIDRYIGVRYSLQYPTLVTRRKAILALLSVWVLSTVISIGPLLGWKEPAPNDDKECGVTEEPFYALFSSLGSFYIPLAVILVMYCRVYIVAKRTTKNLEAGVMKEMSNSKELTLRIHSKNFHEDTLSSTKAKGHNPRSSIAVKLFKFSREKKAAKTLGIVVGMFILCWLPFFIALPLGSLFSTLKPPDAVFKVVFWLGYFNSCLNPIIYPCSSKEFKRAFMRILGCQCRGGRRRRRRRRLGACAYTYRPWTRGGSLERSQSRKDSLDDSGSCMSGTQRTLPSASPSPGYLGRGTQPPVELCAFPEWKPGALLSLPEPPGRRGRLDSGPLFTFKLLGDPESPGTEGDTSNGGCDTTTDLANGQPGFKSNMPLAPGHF
T8 sequence (Q14524 whole entry): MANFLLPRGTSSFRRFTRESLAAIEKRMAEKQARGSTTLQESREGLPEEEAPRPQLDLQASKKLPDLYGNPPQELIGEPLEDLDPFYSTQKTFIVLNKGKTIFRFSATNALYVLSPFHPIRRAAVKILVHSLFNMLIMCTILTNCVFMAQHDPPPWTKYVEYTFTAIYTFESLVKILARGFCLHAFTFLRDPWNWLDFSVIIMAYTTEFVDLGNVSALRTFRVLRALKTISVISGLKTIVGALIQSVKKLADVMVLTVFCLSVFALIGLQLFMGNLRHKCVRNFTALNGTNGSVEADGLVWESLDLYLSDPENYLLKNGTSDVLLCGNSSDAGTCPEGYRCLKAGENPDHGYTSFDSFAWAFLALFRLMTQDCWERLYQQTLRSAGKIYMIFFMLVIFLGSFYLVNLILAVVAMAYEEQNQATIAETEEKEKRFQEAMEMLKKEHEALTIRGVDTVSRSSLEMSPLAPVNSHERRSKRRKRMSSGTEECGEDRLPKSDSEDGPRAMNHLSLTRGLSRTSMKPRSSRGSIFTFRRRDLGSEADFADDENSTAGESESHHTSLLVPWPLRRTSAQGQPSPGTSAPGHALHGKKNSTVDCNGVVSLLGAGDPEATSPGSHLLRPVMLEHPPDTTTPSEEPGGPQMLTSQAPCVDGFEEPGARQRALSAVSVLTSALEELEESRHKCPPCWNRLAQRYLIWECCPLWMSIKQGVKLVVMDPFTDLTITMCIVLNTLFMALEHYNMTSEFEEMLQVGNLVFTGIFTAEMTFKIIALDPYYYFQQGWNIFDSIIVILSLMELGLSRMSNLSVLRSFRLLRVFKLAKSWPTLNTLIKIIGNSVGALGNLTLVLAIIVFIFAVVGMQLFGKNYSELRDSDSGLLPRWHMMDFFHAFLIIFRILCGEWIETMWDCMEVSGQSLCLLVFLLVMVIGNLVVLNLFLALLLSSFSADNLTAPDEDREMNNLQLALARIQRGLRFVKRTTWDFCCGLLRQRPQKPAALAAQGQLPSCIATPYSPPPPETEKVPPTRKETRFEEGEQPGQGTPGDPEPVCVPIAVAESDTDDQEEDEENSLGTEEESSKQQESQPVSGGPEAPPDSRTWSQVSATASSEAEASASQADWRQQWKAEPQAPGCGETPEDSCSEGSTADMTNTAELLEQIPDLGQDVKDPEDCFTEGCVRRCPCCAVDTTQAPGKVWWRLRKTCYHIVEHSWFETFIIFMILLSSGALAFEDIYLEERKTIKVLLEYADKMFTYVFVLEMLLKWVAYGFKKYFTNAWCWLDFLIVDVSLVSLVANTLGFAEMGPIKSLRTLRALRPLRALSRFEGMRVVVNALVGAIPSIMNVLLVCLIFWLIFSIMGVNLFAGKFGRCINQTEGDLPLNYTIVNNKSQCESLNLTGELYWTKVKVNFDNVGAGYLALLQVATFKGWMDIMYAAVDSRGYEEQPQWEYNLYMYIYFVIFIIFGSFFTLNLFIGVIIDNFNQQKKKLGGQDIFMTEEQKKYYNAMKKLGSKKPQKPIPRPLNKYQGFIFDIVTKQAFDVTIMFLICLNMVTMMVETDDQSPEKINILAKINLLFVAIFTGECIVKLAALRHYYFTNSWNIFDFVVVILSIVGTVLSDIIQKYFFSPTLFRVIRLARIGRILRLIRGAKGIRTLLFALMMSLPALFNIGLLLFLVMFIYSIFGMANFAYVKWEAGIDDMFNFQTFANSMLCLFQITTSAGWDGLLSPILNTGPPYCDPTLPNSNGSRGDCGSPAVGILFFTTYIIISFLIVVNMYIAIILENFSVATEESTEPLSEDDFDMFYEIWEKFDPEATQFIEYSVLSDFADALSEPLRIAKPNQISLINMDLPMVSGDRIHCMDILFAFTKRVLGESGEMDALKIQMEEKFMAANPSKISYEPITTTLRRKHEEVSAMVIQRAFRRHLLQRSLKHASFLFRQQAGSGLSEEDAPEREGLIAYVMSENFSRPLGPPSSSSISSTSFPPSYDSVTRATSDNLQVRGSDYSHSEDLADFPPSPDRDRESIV
T12 sequence (P25100 whole entry): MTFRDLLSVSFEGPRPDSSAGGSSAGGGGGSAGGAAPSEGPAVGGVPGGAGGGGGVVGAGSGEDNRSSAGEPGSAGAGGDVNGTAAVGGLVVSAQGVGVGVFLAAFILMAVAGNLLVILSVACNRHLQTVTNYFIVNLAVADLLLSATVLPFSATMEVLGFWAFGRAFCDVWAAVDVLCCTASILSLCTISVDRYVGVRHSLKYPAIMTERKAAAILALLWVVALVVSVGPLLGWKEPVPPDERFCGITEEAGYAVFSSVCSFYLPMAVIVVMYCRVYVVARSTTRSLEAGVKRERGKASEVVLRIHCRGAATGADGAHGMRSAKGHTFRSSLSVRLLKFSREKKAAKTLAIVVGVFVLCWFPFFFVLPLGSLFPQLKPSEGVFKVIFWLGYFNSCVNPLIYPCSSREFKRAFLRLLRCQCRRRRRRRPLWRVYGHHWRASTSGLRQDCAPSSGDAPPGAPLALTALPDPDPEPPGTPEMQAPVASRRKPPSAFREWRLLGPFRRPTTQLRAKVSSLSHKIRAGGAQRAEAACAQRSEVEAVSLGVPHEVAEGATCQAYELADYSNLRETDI

SMILES: Cc1nc(C)c2c(n1)sc1c(NCc3ccc(C(C)(C)O)cc3)nccc12 [22g]
- % inh at 10 μM [1]: 0%
- inhibition at 10 µM [2]: -10%
- inhibition at 10 µM [3]: 22%
- human M1 %Ach Max [4]: inactive
- human M1 EC50 [4]: inactive
- % inh at 10 μM [5]: 0%
- inhibition at 10 µM [6]: 7%
- % inh at 10 μM [7]: 5%
- inhibition at 10 µM [8]: 4.1%
- inhibition at 10 µM [9]: 13.9%
- inhibition at 10 µM [10]: 9%
- inhibition at 10 µM [11]: 6.9%
- inhibition at 10 µM [12]: 6.7%
- inhibition at 10 µM [13]: 5.8%
- inhibition at 10 µM [14]: 10.9%
- inhibition at 10 µM [15]: 1.3%
- inhibition at 10 µM [16]: 2.6%
- % inh at 10 μM [17]: -1%
- human M5 %Ach Max [18]: inactive
- human M5 EC50 [18]: inactive
- inhibition at 10 µM [19]: 7%
- inhibition at 10 µM [20]: 10%
- inhibition at 10 µM [21]: -1%
- inhibition at 10 µM [22]: 26%
- inhibition at 10 µM [23]: 5%
- inhibition at 10 µM [24]: 7%
- inhibition at 10 µM [25]: 3%
